“And” between values parts separate entries of the source, which are not always exact repeats. Equal values may be shown once. Read-outs that look alike come from different tables or passages of the source.

The values that follow come from article PMC8786932, “Bicyclic azetidines target acute and chronic stages of Toxoplasma gondii by inhibiting parasite phenylalanyl t-RNA synthetase” (Nature Communications, 2022).

The test system of experiment [1] is C. parvum. The settings on record: C. parvum mouse model; cited from earlier work.
Experiment [2] relates to C. parvum. The settings on record: Fig 2A Tg_Pf_Cp EC50s; previously reported values, reference not visible in the shown part; cited from earlier work.
For experiment [3], the system named is T. gondii residual infection. As to the kind of experiment: ELISA of survivors and bioassay of brain homogenate into naive recipient mice. Format: in vivo, Ifngr1-/- mice. The protocol: Testing of compounds to prevent reactivation of chronic infection was […] to test the efficacy of PheRS inhibitors against chronic infection. In both cases, male and female C57BL/6 Ifngr1^−/− mice were infected by oral gavage with 5 cysts of the ME49-Fluc strain isolated from chronically infected CBA/J mice. Compound BRD7929 was formulated at 1 mg/mL in freshly prepared compound resuspension buffer (vehicle; 10% ETOH, 4% Tween-80 in 1xPBS), aliquoted for single use and stored at −20 °C. In the first protocol, at 48 h post-infection, animals were given sulfadiazine (0.25 g/L in drinking water) for 20 days post-infection to prevent death during acute infection and to allow establishment of chronic infection. Two days after completion of the sulfadiazine treatment, one cohort of mice were treated once a day with 10 mg/kg BRD7929 by oral gavage for 16 days and control mice received an equal volume of vehicle during the same time frame. Animals were monitored for survival and weight loss for 30 days post-treatment. […] All mice were monitored for survival and weight loss every two days for the duration of treatment and for an additional >20 days post-treatment. […] Recipient mice were monitored for 20 days for survival, weight loss, and seroconversion by ELISA.
(In general: In an ELISA, binding on a coated surface is turned into a signal by an enzyme label.)

Experiment [4] concerns T. gondii RHΔΔ TgPheRS[M484I]. The experiment can be described thus: Tachyzoite lytic assay, M484I mutant. Format: cell-based. The settings on record: Toxoplasma gondii. The protocol: (§1) In vitro cultures of HFF cells containing mature vacuoles were scraped, passaged through 23 g blunt end needles, and filtered using 3 micron filters. Purified parasites were resuspended in 350 μL of cytomix plus[49] and combined in a BTX 4 mm gap cuvette with 30 μL of PCR amplified templates corresponding to mutations of interest and 10 μg of pSAG1:Cas9-GFP U6:sgTgPheRS^[mut] (in 20 μL, 400 μL total volume, see Supplementary Data 1 for sgRNA sequences) prior to electroporation using a BTX ETM 830 electroporator. Amplified templates for TgPheRS mutations were generated from gBlocks (Integrated DNA Technologies, Coralville, IA, USA) that contain a BclI restriction site that replaces the PAM sequence to protect the repair template from being cut by Cas9. […]
(§2) Parasite growth on HFF monolayers was monitored using a 96-well plate-based lytic assay modified from a previously described protocol. […] Plates were rinsed with water, air dried, and absorption quantified on the Cytation 3 multi-mode imager at 570 nm wavelength. % parasite growth was calculated as 100−[(OD value for infected cultures at each concentration of compound/average OD value for no compound and no parasite infection) × 100]. EC50 values were calculated based on the mean of three biological replicates with each replicate containing two technical replicates.

For experiment [5], the system named is T. gondii RHΔΔ TgPheRS[V262A]. As to the kind of experiment: Tachyzoite lytic assay, V262A mutant. Format: cell-based. The settings on record: Toxoplasma gondii. The method, then: as §1, §2
The subject of experiment [6] is T. gondii ME49-FLuc tissue cysts. Format: in vivo, Ifngr1-/- mice. The method, then: (§3) Ifngr1^−/− (B6.129S7-Ifngr1 ^tm1Agt /J) and CBA/J mice were purchased from Jackson Laboratory and bred locally at Washington University. Animal studies were conducted according to the U.S. Public Health Service policy on human care and use of laboratory animals. Animals were maintained in facilities approved by the Association for Assessment and Accreditation of Laboratory Animal Care. Studies were approved by Division of Comparative Medicine, Washington University. […] Animals were maintained on a 12:12 light cycle, room temperature maintained at 70℉ ± 2℉, and room humidity maintained at 50% ± 20%.
(§4) Testing of compounds to prevent reactivation of chronic infection was […] to test the efficacy of PheRS inhibitors against chronic infection. In both cases, male and female C57BL/6 Ifngr1^−/− mice were infected by oral gavage with 5 cysts of the ME49-Fluc strain isolated from chronically infected CBA/J mice. […] Animals were monitored for survival and weight loss for 30 days post-treatment.

The test system of experiment [7] is T. gondii ME49-FLuc chronic infection. Format: in vivo, Ifngr1-/- mice. The settings on record: for Days (survival time of single mouse) / Survival event flag of single mouse (1 or 0): Fig 6C. The method, then: as §3, §4
[8] abbreviates: read-out: EC50 (growth restriction).

With `COc1ccc(NC(=O)N2CCCCN3[C@H](CO)[C@H](c4ccc(C#Cc5ccccc5)cc4)[C@@H]3C2)cc1` [BRD3444], the “reduction of oocyst shedding” value in the experiment on C. parvum [1] is 96%. Moreover, the 50% effective concentration (EC50) (as a rule, the concentration at which the effect is half-maximal) in the experiment on C. parvum [2] is 15 nM.
Turning to `COc1ccc(NC(=O)N2CCCCN3[C@H](CN(C)C)[C@H](c4ccc(C#Cc5ccccc5)cc4)[C@@H]3C2)cc1` [BRD7929], in experiment [3] (oral challenge model survivors, recipients monitored 20 days), the “bioassay of brains of surviving treated mice in naive recipients” value is “All recipient mice survived and remained seronegative”. Besides, the “bioassay of brain homogenate of the surviving animal” value in experiment [3] (reactivation model survivor) is “failed to detect any residual infection”. Besides, the EC50 is 93 nM in experiment [4] (72 h, read-out: EC50, M484I); 65 nM in experiment [4] (setting [8]); 202 nM in experiment [5] (72 h, read-out: EC50, V262A); 159 nM in experiment [5] (setting [8]). The “survival vs sulfadiazine, oral challenge model” value in experiment [6] (10 mg/kg p.o. 20 days, P = 0.0487, Mantel-Cox) is reported as “survived significantly longer than sulfadiazine mice”. For the same molecule, the mean survival in experiment [6] (10 mg/kg p.o. QD for 10 days from 48 h post-challenge) was found to be 16.5 days; in experiment [6] (10 mg/kg p.o. QD for 20 days from 48 h post-challenge) it was 21 days. Further, the “mice in which death was prevented” value in experiment [6] (10 mg/kg p.o. QD, 20 days) is reported as 3 of 8. The “animals cured by treatment, overall” value in experiment [6] (10 day and 20 day cohorts together) is 4 of 16. Besides, in experiment [7] (10 mg/kg p.o. QD, 16 days), the “onset of death, reactivation model” value is listed as “delayed onset of death”. Moreover, the “survival vs vehicle, reactivation model” value in experiment [7] (10 mg/kg p.o. once a day, 16 days, P = 0.0003, Mantel-Cox) is listed as “survived significantly longer”. For the same molecule, the “Days (survival of individual mice)” value in experiment [7] (10 mg/kg, c3: 1 = death, 0 = survivor) was 10 days and 12 days and 24 days and 20 days and 30 days and 23 days and 22 days. In addition, the “Days (survival time of single mouse)” value in experiment [7] (10d-10 mg / kg) is 13 days and 29 days and 14 days and 17 days and 19 days and 16 days; in experiment [7] (20d - 10 mg / kg, 10 mg/kg) it was 29 days and 17 days and 15 days and 20 days and 19 days and 22 days. Besides, the “Survival event flag of single mouse (1 or 0)” value in experiment [7] (10d-10 mg / kg) was 1 and 0; in experiment [7] (20d - 10 mg / kg, 10 mg/kg), 0 and 1.
